According to PMC3697191 (Journal of Pharmacy & Bioallied Sciences, 2013):
Converted amounts (≈) assume the structure as drawn.

How the values were obtained:
[1] = system: Mycobacterium tuberculosis H37Rv; test: Microplate Alamar Blue assay; assay type: cell-based; conditions: for MIC: Mycobacterium tuberculosis, H37RV, 120 h, read-out: M. tuberculosis MIC, H37Rv, microplate Alamar Blue assay; for times more active than Pyrazinamide (MIC) / times more active than streptomycin (MIC): M. tuberculosis H37Rv
B. substilis = test: MIC by two-fold serial dilution; assay type: cell-based, Bacillus subtilis
[2] = system: mouse embryonic fibroblasts cell line (NIH 3T3); conditions: SI = IC50 (NIH 3T3) / MIC (M. tuberculosis H37Rv)
in vitro = conditions: mouse

Structure (SMILES) | MIC [1] [µM] | times more active than Pyrazinamide (MIC) [1] | times more active than streptomycin (MIC) [1] | times more active than Ciprofloxacin (MIC) (B. substilis) | Selectivity index [2] | IC50 (in vitro) [µM]
NC(=O)c1cnccn1 [Pyrazinamide, reference compound] | 25.4 (≈ 3.12 µg/mL) |  |  |  |  | 
O=C1C(=NNc2nc(-c3ccccc3)cs2)C(N=Cc2ccc(O)c(O)c2)=NN1c1ccccc1 [TZP4h, 3-[[(3,4-dihydroxyphenyl)methylidene]amino]-1-phenyl-4-[2-(4-phenyl-1,3-thiazol-2-yl) hydrazin-1-ylidene]-4,5-dihydro-1H-pyrazol-5-one] | 6.48 (≈ 3.13 µg/mL) | 3.9 | 1.69 | 1.45 | 199.07 | 
O=C1C(=NNc2nc(-c3ccccc3)cs2)C(N=Cc2ccc([N+](=O)[O-])cc2)=NN1c1ccccc1 [TZP4l, 3-[[(4-nitrophenyl)methylidene]amino]-1-phenyl-4-[2-(4-phenyl-1,3-thiazol-2-yl) hydrazin-1-ylidene]-4,5-dihydro-1H-pyrazol-5-one] |  |  |  |  | 20.32 | > 1000
O=C1C(=NNc2nc(-c3ccccc3)cs2)C(N=Cc2cccc(Cl)c2)=NN1c1ccccc1 [TZP4c, 3-[[(3-chlorophenyl)methylidene]amino]-1-phenyl-4-[2-(4-phenyl-1,3-thiazol-2-yl) hydrazin-1-ylidene]-4,5-dihydro-1H-pyrazol-5-one] |  |  |  |  | 82.85 | > 1000
O=C1C(=NNc2nc(-c3ccccc3)cs2)C(N=Cc2ccc(O)cc2O)=NN1c1ccccc1 [TZP4g, 3-[[(2,4-dihydroxyphenyl)methylidene]amino]-1-phenyl-4-[2-(4-phenyl-1,3-thiazol-2-yl) hydrazin-1-ylidene]-4,5-dihydro-1H-pyrazol-5-one] | 12.9 (≈ 6.25 µg/mL) | 1.69 | 3.91 | 1.45 | 168.88 | > 1000
COc1cc(C=NC2=NN(c3ccccc3)C(=O)C2=NNc2nc(-c3ccccc3)cs2)ccc1O [TZP4j, 3-[[(4-hydroxy-3-methoxyphenyl)methylidene]amino]-1-phenyl-4-[2-(4-phenyl-1,3-thiazol-2-yl) hydrazin-1-ylidene]-4,5-dihydro-1H-pyrazol-5-one] | 25.2 (≈ 12.5 µg/mL) |  |  | 2.99 |  | 
COc1cccc(C=NC2=NN(c3ccccc3)C(=O)C2=NNc2nc(-c3ccccc3)cs2)c1 [TZP4i, 3-[[(3-methoxyphenyl)methylidene]amino]-1-phenyl-4-[2-(4-phenyl-1,3-thiazol-2-yl) hydrazin-1-ylidene]-4,5-dihydro-1H-pyrazol-5-one] | 26 (≈ 12.5 µg/mL) |  |  |  |  | 
O=C1C(=NNc2nc(-c3ccccc3)cs2)C(N=Cc2ccc(Cl)cc2)=NN1c1ccccc1 [TZP4d, 3-[[(4-chlorophenyl)methylidene]amino]-1-phenyl-4-[2-(4-phenyl-1,3-thiazol-2-yl) hydrazin-1-ylidene]-4,5-dihydro-1H-pyrazol-5-one] |  |  |  |  | 22.37 | > 1000
CN(C)c1ccc(C=NC2=NN(c3ccccc3)C(=O)C2=NNc2nc(-c3ccccc3)cs2)cc1 [TZP4k, 3-[{[4-(dimethylamino)phenyl]methylidene}amino]-1-phenyl-4-[2-(4-phenyl-1,3-thiazol-2-yl) hydrazin-1-ylidene]-4,5-dihydro-1H-pyrazol-5-one] | 13 (≈ 6.4 µg/mL) |  |  |  |  | 
O=C1C(=NNc2nc(-c3ccccc3)cs2)C(N=Cc2ccccc2O)=NN1c1ccccc1 [TZP4f, 3-[[(2-hydroxyphenyl)methylidene]amino]-1-phenyl-4-[2-(4-phenyl-1,3-thiazol-2-yl) hydrazin-1-ylidene]-4,5-dihydro-1H-pyrazol-5-one] | 53.6 (≈ 25 µg/mL) |  |  |  | 24.44 | 
[H]/N=C(/N)N[C@H]1[C@H](O)[C@@H](O)[C@H](O[C@@H]2O[C@@H](C)[C@](O)(C=O)[C@H]2O[C@@H]2O[C@@H](CO)[C@H](O)[C@@H](O)[C@@H]2NC)[C@@H](N/C(N)=N\[H])[C@@H]1O [Streptomycin, reference compound] | 11 (≈ 6.4 µg/mL) |  |  |  |  | 
O=C1C(=NNc2nc(-c3ccccc3)cs2)C(N=Cc2ccccc2Cl)=NN1c1ccccc1 [TZP4b, 3-[[(2-chlorophenyl)methylidene]amino]-1-phenyl-4-[2-(4-phenyl-1,3-thiazol-2-yl) hydrazin-1-ylidene]-4,5-dihydro-1H-pyrazol-5-one] |  |  |  |  |  | 990
